System: alpha2 Adrenoceptors (Alpha2AR)
Assay: Antagonist activity on alpha2 adrenoceptors in rat vas deferens in vitro (electrically evoked contractions)
Details: isolated rat vas deferens, field stimulation; antagonist added at least five minutes before alpha2AR agonist
Experimental: Antagonist activity on alpha2 Adrenoceptors (Alpha2AR) in rat vas deferens in vitro
Rats were killed by CO2-suffocation. Vas deferentia were dissected out and both prostatic halves were removed to tissue chambers containing Krebs-solution of the following composition (mM): NaCl 118, KCl 4.7, CaCl22.5, KH2PO41.2, MgSO40.6, NaHCO325, glucose 11.1, aerated by 5% carbogen, temperature 37° C., pH 7.4. Propranolol […] and desipramine […] were added to prevent the possible effects on […] receptors and to prevent re-uptake of released norepinephrine, respectively. Preparations were tied to the bottom hooks of the incubation chambers and then to isometric force-displacement transducers above. Electrical stimulation was started after the equilibrium period (5 minutes under a resting tension of 0.5 g) by introducing field stimulation with the following parameters: twin-pulses, voltage 70 V, frequency 0.2 Hz, delay 5 ms, duration 2 ms. […] Inhibition of the electrically evoked contractions was measured as the response to alpha2AR agonists. Antagonist was administered into the incubation medium at least five minutes before agonist. Means ± SEM of percentage inhibition were calculated in the absence and in the presence of antagonist and expressed as dose-response curves. In order to express the antagonist potency, the pA2-value was calculated.

SMILES	vas deferens Alpha2 antagonistic activity, pA2
Oc1ccc2c(c1)C(Cc1c[nH]cn1)CC2c1ccccc1 (stereo not shown) [Compound 4, 3-(1H-imidazol-4-ylmethyl)-1-phenylindan-5-ol]	pA2 = 6.9
Fc1ccc(C2CC(Cc3c[nH]cn3)c3cc(F)ccc32)cc1 (stereo not shown) [Compound 15, 4-[6-Fluoro-3-(4-fluorophenyl)indan-1-ylmethyl]-1H-imidazole]	pA2 = 6.2
Fc1cccc(C2CC(Cc3c[nH]cn3)c3ccccc32)c1 (stereo not shown) [Compound 9, 4-[3-(3-Fluorophenyl)indan-1-ylmethyl]-1H-imidazole]	pA2 = 6.2
Fc1ccc(C2CC(Cc3c[nH]cn3)c3ccccc32)cc1F (stereo not shown) [Compound 11, 4-[3-(3,4-Difluorophenyl)indan-1-ylmethyl]-1H-imidazole]	pA2 = 6.2
COc1ccc2c(c1)C(Cc1c[nH]cn1)C(c1ccccc1)C2 (stereo not shown) [Compound 13, 4-[(2,3-Dihydro-6-methoxy-2-phenyl-1H-inden-1-yl)methyl]-1H-imidazole]	pA2 = 5.6
Oc1cc2c(cc1O)C(c1ccccc1)CC2Cc1c[nH]cn1 (stereo not shown) [Compound 3, 1-(1H-Imidazol-4-ylmethyl)-3-phenylindan-5,6-diol]	pA2 = 5.6
Oc1ccc2c(c1)C(Cc1c[nH]cn1)C(c1ccccc1)C2 (stereo not shown) [Compound 14, 3-(1H-Imidazol-4-ylmethyl)-2-phenylindan-5-ol]	pA2 = 5.5
c1ccc(C2CC(Cc3c[nH]cn3)c3ccccc32)cc1 (stereo not shown) [Compound 1, 4-(3-Phenylindan-1-ylmethyl)-1H-imidazole]	pA2 = 7.0
COc1cc2c(cc1OC)C(c1ccccc1)CC2Cc1c[nH]cn1 (stereo not shown) [Compound 2, 4-(5,6-Dimethoxy-3-phenylindan-1-ylmethyl)-1H-imidazole]	pA2 = 6.0
c1ccc(C2Cc3ccccc3C2Cc2c[nH]cn2)cc1 (stereo not shown) [Compound 16, 4-[(2,3-Dihydro-2-phenyl-1H-inden-1-yl)methyl]-1H-imidazole]	pA2 = 6.5
COc1ccc(C2CC(Cc3c[nH]cn3)c3cc(OC)ccc32)cc1 (stereo not shown) [Compound 5, 4-[6-Methoxy-3-(4-methoxyphenyl)indan-1-ylmethyl]-1H-imidazole]	pA2 = 6.3
Fc1ccccc1C1CC(Cc2c[nH]cn2)c2ccccc21 (stereo not shown) [Compound 10, 4-[3-(2-Fluorophenyl)indan-1-ylmethyl]-1H-imidazole]	pA2 = 6.2
c1ccc(C2OC(Cc3c[nH]cn3)c3ccccc32)cc1 (stereo not shown) [Compound 12, 4-(3-Phenyl-1,3-dihydroisobenzofuran-1-ylmethyl)-1H-imidazole]	pA2 = 6.3
Oc1ccc2c(c1)C(Cc1c[nH]cn1)CC2c1ccc(F)cc1 (stereo not shown) [Compound 8, 1-(4-Fluorophenyl)-3-(1H-imidazol-4-ylmethyl)indan-5-ol]	pA2 = 6.7
Fc1ccc(C2CC(Cc3c[nH]cn3)c3ccccc32)cc1 (stereo not shown) [Compound 7, 4-[3-(4-Fluorophenyl)indan-1-ylmethyl]-1H-imidazole]	pA2 = 7.6
Oc1ccc(C2CC(Cc3c[nH]cn3)c3cc(O)ccc32)cc1 (stereo not shown) [Compound 6, 1-(4-Hydroxyphenyl)-3-(1H-imidazol-4-ylmethyl)indan-5-ol]	pA2 = 6.6

From US6388090B2, “Imidazole derivatives” (Orion Corporation, priority 2000, dated 2002)
